By Ki is commonly meant the dissociation constant of the complex between target and ligand, obtained from inhibition or displacement. Higher therefore signals weaker binding. As usually defined, the IC90 is the concentration needed for an effect of 90%. A low value points to an effect from little substance.

Experiment [1] concerns the target Human immunodeficiency virus type 1 protease (Human immunodeficiency virus 1, UniProt Q72874). Put plainly: Binding affinity for HIV -1 Protease.
The target in experiment [2] is Human immunodeficiency virus type 1 protease (Human immunodeficiency virus 1) (UniProt Q72874). Put plainly: Inhibitory activity against HIV -1 Protease in whole cell assay.
For experiment [3], the system named is Human immunodeficiency virus 1. Put plainly: Inhibitory activity against Ritonavir resistant virus mutant strain. The format is functional.

As for `Nc1cccc(CN2C(=O)N(Cc3ccc4[nH]nc(-c5ccc(C(F)(F)F)cc5)c4c3)[C@H](Cc3ccccc3)[C@H](O)[C@@H](O)[C@H]2Cc2ccccc2)c1`, the affinity in experiment [1], expressed as Ki, was 0.25 nM. The same compound gave an IC90 in experiment [2] of 255 nM.
With `COc1ccc(-c2[nH]nc3ccc(CN4C(=O)N(Cc5cccc(N)c5)[C@H](Cc5ccccc5)[C@H](O)[C@@H](O)[C@H]4Cc4ccccc4)cc23)cc1`, the IC90 in experiment [3] amounted to 4190 nM; in experiment [2], 14 nM. Besides, in experiment [1], the Ki is 0.26 nM.
In the same order, the values of `Nc1cccc(CN2C(=O)N(Cc3ccc4[nH]nc(-c5cc[nH]n5)c4c3)[C@H](Cc3ccccc3)[C@H](O)[C@@H](O)[C@H]2Cc2ccccc2)c1` are 525 nM, 108 nM and 0.058 nM.
The compound `COc1cccc(-c2n[nH]c3ccc(CN4C(=O)N(Cc5cccc(N)c5)[C@H](Cc5ccccc5)[C@H](O)[C@@H](O)[C@H]4Cc4ccccc4)cc23)c1` yielded a Ki in experiment [1] of 0.24 nM.
Take `Nc1cccc(CN2C(=O)N(Cc3ccc4[nH]ncc4c3)[C@H](Cc3ccccc3)[C@H](O)[C@@H](O)[C@H]2Cc2ccccc2)c1`: the IC90 in experiment [3] was 825 nM; in experiment [2], 11 nM.
As to `Nc1cccc(CN2C(=O)N(Cc3ccc4[nH]nc(-c5ccsc5)c4c3)[C@H](Cc3ccccc3)[C@H](O)[C@@H](O)[C@H]2Cc2ccccc2)c1`, the results for the IC90 in experiment [3] and in experiment [2] were above 5000 nM and 32 nM, respectively. The compound also yielded a Ki in experiment [1] of 0.13 nM.
In turn, `CC(C)c1nc(CN(C)C(=O)N[C@H](C(=O)N[C@@H](Cc2ccccc2)C[C@H](O)[C@H](Cc2ccccc2)NC(=O)OCc2cncs2)C(C)C)cs1` [RITONAVIR] had an IC90 in experiment [3] of 4500 nM. In other words, the single-digit micromolar range.
For `COc1cccc(-c2[nH]nc3ccc(CN4C(=O)N(Cc5cccc(N)c5)[C@H](Cc5ccccc5)[C@H](O)[C@@H](O)[C@H]4Cc4ccccc4)cc23)c1`, the figures for the IC90 in experiment [3] and in experiment [2] were 3140 nM and 33 nM, respectively.
As for `Nc1cccc(CN2C(=O)N(Cc3ccc4[nH]nc(-c5cccc(N)c5)c4c3)[C@H](Cc3ccccc3)[C@H](O)[C@@H](O)[C@H]2Cc2ccccc2)c1`, the values for the IC90 in experiment [3] and in experiment [2] were 1300 nM and 30 nM, respectively. In addition, the Ki in experiment [1] came to 0.09 nM.
`Nc1cccc(CN2C(=O)N(Cc3ccc4[nH]nc(-c5cccc(C(F)(F)F)c5)c4c3)[C@H](Cc3ccccc3)[C@H](O)[C@@H](O)[C@H]2Cc2ccccc2)c1`: the Ki in experiment [1] was 0.61 nM. Further, it took 39 nM to reach the 90% level in experiment [2] (IC90).
For `Nc1cccc(CN2C(=O)N(Cc3ccc4[nH]nc(-c5cccs5)c4c3)[C@H](Cc3ccccc3)[C@H](O)[C@@H](O)[C@H]2Cc2ccccc2)c1`, the IC90 was above 5000 nM in experiment [3] and 31 nM in experiment [2]. Further, the affinity in experiment [1], expressed as Ki, was 0.18 nM.
On the same counts, the results for `Nc1cccc(CN2C(=O)N(Cc3ccc4[nH]nc(-c5ccc(F)cc5)c4c3)[C@H](Cc3ccccc3)[C@H](O)[C@@H](O)[C@H]2Cc2ccccc2)c1` are above 5000 nM, 39 nM and 0.3 nM.

Source of the values: ChEMBL document CHEMBL1131882, “Unsymmetrical cyclic ureas as HIV-1 protease inhibitors: novel biaryl indazoles as P2/P2' substituents” (Bioorg Med Chem Lett, 1999).
